Data reported in patent US7442776B2, “Cancerous disease modifying antibodies” (priority 1999, dated 2008).

Key:
Parameters in all cases: key to the marks not given beside the values
Conditions in all cases: purified antibody or control, 5 days incubation, calcein; four experiments in triplicate
[1] = tested on: HT-29 colon cancer cell line; assay: Live/Dead cytotoxicity assay
[2] = tested on: MCF-7 breast cancer cell line
[3] = tested on: PC-3 prostate cancer cell line
[4] = tested on: MDA-MB-231 (MB-231) breast cancer cell line; assay: Live/Dead cytotoxicity assay
[5] = tested on: SW1116 colon cancer cell line
[6] = tested on: SW620 colon cancer cell line; assay: Live/Dead cytotoxicity assay
[7] = tested on: NCI-H460 lung cancer cell line; assay: Live/Dead cytotoxicity assay
[8] = tested on: MDA-MB-468 (MB-468) breast cancer cell line; assay: Live/Dead cytotoxicity assay
[9] = tested on: OVCAR-3 ovarian cancer cell line; assay: Live/Dead cytotoxicity assay
[10] = tested on: Hs888.Lu non-cancer cell line
[11] = tested on: CCD-27sk non-cancer cell line

Row | Structure (SMILES) | In Vitro Cytotoxicity, HT-29 [1] | In Vitro Cytotoxicity, MCF-7 [2] | In Vitro Cytotoxicity, PC-3 [3] | In Vitro Cytotoxicity, MB-231 [4] | In Vitro Cytotoxicity, SW1116 [5] | In Vitro Cytotoxicity, SW620 [6] | In Vitro Cytotoxicity, NCI H460 [7] | In Vitro Cytotoxicity, MB-468 [8] | In Vitro Cytotoxicity, OVCAR [9] | In Vitro Cytotoxicity, Hs888 Lu [10] | In Vitro Cytotoxicity, CCD 27sk [11]
1 | C[C@@H]1C[C@@H]([C@H](O)CC2CC(=O)NC(=O)C2)C(=O)[C@@H](C)C1 [CHX, Cycloheximide] | +++ | +++ | +++ | ++ | +++ | ++ | ++ | +++ | +++ | +++ | +++
2 | [N-]=[N+]=[N-].[Na+] [NaN3] | +++ | +++ | +++ | +++ | ++ |  | +++ | +++ | +++ |  | 
